target: T1, Human TRPC6 (Homo sapiens, UniProt Q9Y210); experiment: Evaluation of TRPC6 channel inhibitory activity (1), FLIPR Calcium 5 Assay Kit, OAG stimulation (Compound Nos. 1-1293); assay type: cell-based; details: Human TRPC6 stably-expressing cells, OAG 30 μM, FLIPR Calcium 5 Assay Kit; read-out: Inhibitory activity (pIC50 class) (converted)
T1 construct: expressed in transfected cells
T1 sequence (Q9Y210 1-931): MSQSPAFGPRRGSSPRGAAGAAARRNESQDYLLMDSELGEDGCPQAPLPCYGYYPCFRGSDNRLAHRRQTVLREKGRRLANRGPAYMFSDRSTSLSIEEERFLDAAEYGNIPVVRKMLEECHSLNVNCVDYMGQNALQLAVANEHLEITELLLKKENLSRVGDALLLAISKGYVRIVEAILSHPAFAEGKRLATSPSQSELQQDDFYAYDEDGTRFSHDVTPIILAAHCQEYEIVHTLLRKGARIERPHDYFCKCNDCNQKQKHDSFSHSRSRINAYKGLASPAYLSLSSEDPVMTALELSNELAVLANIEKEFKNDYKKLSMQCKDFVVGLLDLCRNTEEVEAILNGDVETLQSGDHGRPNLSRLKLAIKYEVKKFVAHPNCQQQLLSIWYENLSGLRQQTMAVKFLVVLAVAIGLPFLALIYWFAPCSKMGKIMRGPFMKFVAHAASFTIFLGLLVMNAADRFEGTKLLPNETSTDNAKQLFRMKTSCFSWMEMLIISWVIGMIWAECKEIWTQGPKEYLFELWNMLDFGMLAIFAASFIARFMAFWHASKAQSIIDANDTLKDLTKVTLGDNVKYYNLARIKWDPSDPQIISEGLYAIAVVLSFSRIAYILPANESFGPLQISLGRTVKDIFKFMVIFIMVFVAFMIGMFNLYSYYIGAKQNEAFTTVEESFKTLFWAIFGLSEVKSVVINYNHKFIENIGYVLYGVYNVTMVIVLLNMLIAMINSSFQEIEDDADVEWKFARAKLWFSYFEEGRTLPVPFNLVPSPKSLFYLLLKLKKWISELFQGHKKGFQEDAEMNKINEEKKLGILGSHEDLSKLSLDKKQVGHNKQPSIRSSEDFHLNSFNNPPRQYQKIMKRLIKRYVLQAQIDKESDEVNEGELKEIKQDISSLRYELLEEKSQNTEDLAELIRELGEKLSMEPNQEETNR
Procedure, shortened: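 Stable human TRPC6 line; fluorescent Ca2+ dye loading, then 20 min compound exposure before 30 μM OAG trigger. Peak-minus-baseline signal converted to % inhibition against untreated and unstimulated wells; potency given as pIC50 band.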

Compound | IC50 [nM]
Cc1nc(Oc2cc(C#N)ccc2-n2cc([C@H](O)CN)cn2)cc(-c2cccc(C(F)(F)F)c2)n1 [compound 357, 4-[4-[(1S)-2-amino-1-hydroxyethyl]pyrazol-1-yl]-3-[2-methyl-6-[3-(trifluoromethyl)phenyl]pyrimidin-4-yl]oxybenzonitrile] | 10 to 1000
Cc1nc(Oc2cc(C#N)ccc2-n2cc([C@@H](O)CN)cn2)cc(-c2ccccc2C)n1 [compound 358, 4-[4-[(1R)-2-amino-1-hydroxyethyl]pyrazol-1-yl]-3-[2-methyl-6-(2-methylphenyl)pyrimidin-4-yl]oxybenzonitrile] | 10 to 1000
Cn1nc(C2CC2)c(F)c1Oc1cc(C#N)ccc1-c1ncc(CCN)cn1 [compound 359, 4-[5-(2-aminoethyl)pyrimidin-2-yl]-3-(5-cyclopropyl-4-fluoro-2-methylpyrazol-3-yl)oxybenzonitrile] | 10 to 1000
Cn1nc(-c2ccccc2)c(F)c1Oc1cc(C#N)ccc1-c1ncc(CCN)cn1 [compound 360, 4-[5-(2-aminoethyl)pyrimidin-2-yl]-3-(4-fluoro-2-methyl-5-phenylpyrazol-3-yl)oxybenzonitrile] | < 10
CCCc1cc(Oc2cc(C#N)ccc2-c2ccc(CN)cn2)n(C)n1 [compound 361, 4-[5-(aminomethyl)pyridin-2-yl]-3-(2-methyl-5-propylpyrazol-3-yl)oxybenzonitrile] | < 10
CC(C)c1cc(Oc2cc(C#N)ccc2-c2ccc(CN)cn2)n(C)n1 [compound 362, 4-[5-(aminomethyl)pyridin-2-yl]-3-(2-methyl-5-propan-2-ylpyrazol-3-yl)oxybenzonitrile] | < 10
CCCc1cc(Oc2cc(C#N)ccc2-c2ncc(CN)cn2)n(C)n1 [compound 363, 4-[5-(aminomethyl)pyrimidin-2-yl]-3-(2-methyl-5-propylpyrazol-3-yl)oxybenzonitrile] | < 10
CC(C)c1cc(Oc2cc(C#N)ccc2-c2ncc(CN)cn2)n(C)n1 [compound 364, 4-[5-(aminomethyl)pyrimidin-2-yl]-3-(2-methyl-5-propan-2-ylpyrazol-3-yl)oxybenzonitrile] | < 10
Cn1nc(-c2ccccc2)cc1Oc1cc(C#N)ccc1-c1ccc([C@@H](O)CN)cn1 [compound 365, 4-[5-[(1R)-2-amino-1-hydroxyethyl]pyridin-2-yl]-3-(2-methyl-5-phenylpyrazol-3-yl)oxybenzonitrile] | < 10
Cn1nc(-c2ccccc2)cc1Oc1cc(C#N)ccc1-c1ccc([C@H](O)CN)cn1 [compound 366, 4-[5-[(1S)-2-amino-1-hydroxyethyl]pyridin-2-yl]-3-(2-methyl-5-phenylpyrazol-3-yl)oxybenzonitrile] | < 10
Cn1nc(C(C)(C)C)cc1Oc1cc(C#N)ccc1-c1ncc(CCN)cn1 [compound 367, 4-[5-(2-aminoethyl)pyrimidin-2-yl]-3-(5-tert-butyl-2-methylpyrazol-3-yl)oxybenzonitrile] | < 10
CC(C)(C)n1nc(C2CC2)cc1Oc1cc(C#N)ccc1-c1ccc(C(O)CN)cn1 (stereo not shown) [compound 368, 4-[5-(2-amino-1-hydroxyethyl)pyridin-2-yl]-3-(2-tert-butyl-5-cyclopropylpyrazol-3-yl)oxybenzonitrile] | 10 to 1000
CC(C)(C)n1nc(C2CC2)cc1Oc1cc(C#N)ccc1-c1ncc(CCN)cn1 [compound 369, 4-[5-(2-aminoethyl)pyrimidin-2-yl]-3-(2-tert-butyl-5-cyclopropylpyrazol-3-yl)oxybenzonitrile] | 10 to 1000
N#Cc1ccc(-c2ccc(C(O)CN)cn2)c(Oc2cc(C3CC3)nn2CC(F)(F)F)c1 (stereo not shown) [compound 370, 4-[5-(2-amino-1-hydroxyethyl)pyridin-2-yl]-3-[5-cyclopropyl-2-(2,2,2-trifluoroethyl)pyrazol-3-yl]oxybenzonitrile] | < 10
Cc1cc(Oc2cc(C#N)ccc2-c2ncc(CCN)cn2)cc(-c2ccccn2)n1 [compound 371, 4-[5-(2-aminoethyl)pyrimidin-2-yl]-3-(2-methyl-6-pyridin-2-ylpyridin-4-yl)oxybenzonitrile] | < 10
Cn1nc(C2CC2)cc1Oc1cc(C#N)ccc1-c1ncc([C@@H](O)CN)cn1 [compound 372, 4-[5-[(1R)-2-amino-1-hydroxyethyl]pyrimidin-2-yl]-3-(5-cyclopropyl-2-methylpyrazol-3-yl)oxybenzonitrile] | < 10
Cn1nc(C2CC2)cc1Oc1cc(C#N)ccc1-c1ncc([C@H](O)CN)cn1 [compound 373, 4-[5-[(1S)-2-amino-1-hydroxyethyl]pyrimidin-2-yl]-3-(5 cyclopropyl-2-methylpyrazol-3-yl)oxybenzonitrile] | < 10
Cn1nc(C2CC2)cc1Oc1cc(C#N)ccc1-c1ccc([C@@H](O)CN)cn1 [compound 374, 4-[5-[(1R)-2-amino-1-hydroxyethyl]pyridin-2-yl]-3-(5-cyclopropyl-2-methylpyrazol-3-yl)oxybenzonitrile] | < 10
Cn1nc(C2CC2)cc1Oc1cc(C#N)ccc1-c1ccc([C@H](O)CN)cn1 [compound 375, 4-[5-[(1S)-2-amino-1-hydroxyethyl]pyridin-2-yl]-3-(5-cyclopropyl-2-methylpyrazol-3-yl)oxybenzonitrile] | < 10
Cn1nc(C(F)(F)C(F)(F)F)cc1Oc1cc(C#N)ccc1-c1ncc(CCN)cn1 [compound 376, 4-[5-(2-aminoethyl)pyrimidin-2-yl]-3-[2-methyl-5-(1,1,2,2,2-pentafluoroethyl)pyrazol-3-yl]oxybenzonitrile] | < 10
Cn1nc(-c2ccc(Cl)cc2)cc1Oc1cc(C#N)ccc1-c1ccc([C@@H](O)CN)cn1 [compound 377, 4-[5-[(1R)-2-amino-1-hydroxyethyl]pyridin-2-yl]-3-[5-(4-chlorophenyl)-2-methylpyrazol-3-yl]oxybenzonitrile] | 10 to 1000

More lines, now with the values ahead:

IC50 [nM] | Compound
< 10 | Cc1ccccc1-c1cc(Oc2cc(C#N)ccc2-c2ccc([C@@H](O)CN)cn2)n(C)n1 [compound 378, 4-[5-[(1R)-2-amino-1-hydroxyethyl]pyridin-2-yl]-3-[2-methyl-5-(2-methylphenyl)pyrazol-3-yl]oxybenzonitrile]
< 10 | N#Cc1ccc(-c2ncc(CCN)cn2)c(Oc2cc(C3CC3)nn2CC(F)(F)F)c1 [compound 379, 4-[5-(2-aminoethyl)pyrimidin-2-yl]-3-[5-cyclopropyl-2-(2,2,2-trifluoroethyl)pyrazol-3-yl]oxybenzonitrile]
10 to 1000 | CC(C)n1nc(C2CC2)cc1Oc1cc(C#N)ccc1-c1ncc(CCN)cn1 [compound 380, 4-[5-(2-aminoethyl)pyrimidin-2-yl]-3-(5-cyclopropyl-2-propan-2-ylpyrazol-3-yl)oxybenzonitrile]
< 10 | CC(C)n1nc(-c2ccccc2)cc1Oc1cc(C#N)ccc1-c1ncc(CCN)cn1 [compound 381, 4-[5-(2-aminoethyl)pyrimidin-2-yl]-3-(5-phenyl-2-propan-2-ylpyrazol-3-yl)oxybenzonitrile]
< 10 | CC(C)n1nc(C2CC2)cc1Oc1cc(C#N)ccc1-c1ccc([C@@H](O)CN)cn1 [compound 382, 4-[5-[(1R)-2-amino-1-hydroxyethyl]pyridin-2-yl]-3-(5-cyclopropyl-2-propan-2-ylpyrazol-3-yl)oxybenzonitrile]
< 10 | CC(C)n1nc(-c2ccccc2)cc1Oc1cc(C#N)ccc1-c1ccc([C@@H](O)CN)cn1 [compound 383, 4-[5-[(1R)-2-amino-1-hydroxyethyl]pyridin-2-yl]-3-(5-phenyl-2-propan-2-ylpyrazol-3-yl)oxybenzonitrile]
< 10 | Cn1nc(C(F)F)cc1Oc1cc(C#N)ccc1-c1ncc(CCN)cn1 [compound 384, 4-[5-(2-aminoethyl)pyrimidin-2-yl]-3-[5-(difluoromethyl)-2-methylpyrazol-3-yl]oxybenzonitrile]
10 to 1000 | Cn1nc(C2CC2)cc1Oc1cc(C#N)ccc1-c1ncc(OCCN)cn1 [compound 385, 4-[5-(2-aminoethoxy)pyrimidin-2-yl]-3-(5-cyclopropyl-2-methylpyrazol-3-yl)oxybenzonitrile]
10 to 1000 | CCc1cc(Oc2cc(C#N)ccc2-c2ncc(OCCN)cn2)n(C)n1 [compound 386, 4-[5-(2-aminoethoxy)pyrimidin-2-yl]-3-(5-ethyl-2-methylpyrazol-3-yl)oxybenzonitrile]
10 to 1000 | Cc1cc(Oc2cc(C#N)ccc2-c2ncc(OCCN)cn2)cc(N2CCOCC2)n1 [compound 387, 4-[5-(2-aminoethoxy)pyrimidin-2-yl]-3-(2-methyl-6-morpholin-4-ylpyridin-4-yl)oxybenzonitrile]

— patent US20230167073A1 (Teijin Pharma Limited, priority 2020, published 2023)
